According to PubChem BioAssay (NCI):
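Briefly, cells in 96-well plates were exposed to five compound concentrations for 48 h, and endpoints were estimated by linear interpolation. TGI denotes the concentration required for complete inhibition of growth.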

How the values were obtained:
Test in all cases: NCI anticancer screen, dose series, 48 h
UACC-62 melanoma = test system: UACC-62 melanoma
COLO 205 colon = test system: COLO 205 colon
SK-MEL-2 melanoma = test system: SK-MEL-2 melanoma
HCC-2998 colon = test system: HCC-2998 colon
HOP-92 NSCLC = test system: HOP-92 NSCLC
OVCAR-5 ovarian = test system: OVCAR-5 ovarian
MCF7 breast = test system: MCF7 breast
IGROV1 ovarian = test system: IGROV1 ovarian
MDA-N = test system: MDA-N
MALME-3M melanoma = test system: MALME-3M melanoma
OVCAR-4 ovarian = test system: OVCAR-4 ovarian
HS 578T breast = test system: HS 578T breast
SW-620 colon = test system: SW-620 colon
786-0 renal = test system: 786-0 renal
LOX IMVI melanoma = test system: LOX IMVI melanoma
PC-3 prostate = test system: PC-3 prostate
SNB-19 CNS = test system: SNB-19 CNS
SF-539 CNS = test system: SF-539 CNS
SN12C renal = test system: SN12C renal
SR leukemia = test system: SR leukemia
EKVX NSCLC = test system: EKVX NSCLC
HCT-15 colon = test system: HCT-15 colon
ACHN renal = test system: ACHN renal
OVCAR-8 ovarian = test system: OVCAR-8 ovarian
UO-31 renal = test system: UO-31 renal
HCT-116 colon = test system: HCT-116 colon
CCRF-CEM leukemia = test system: CCRF-CEM leukemia
HT29 colon = test system: HT29 colon
NCI-H226 lung = test system: NCI-H226 lung
T-47D breast = test system: T-47D breast
HOP-62 NSCLC = test system: HOP-62 NSCLC
M14 melanoma = test system: M14 melanoma
SF-268 CNS = test system: SF-268 CNS
SK-OV-3 ovarian = test system: SK-OV-3 ovarian
A549 NSCLC = test system: A549 NSCLC
HL-60(TB) leukemia = test system: HL-60(TB) leukemia
CAKI-1 renal = test system: CAKI-1 renal
BT-549 breast = test system: BT-549 breast
NCI/ADR-RES ovarian = test system: NCI/ADR-RES ovarian
DU-145 prostate = test system: DU-145 prostate
K-562 leukemia = test system: K-562 leukemia
NCI-H23 lung = test system: NCI-H23 lung
OVCAR-3 ovarian = test system: OVCAR-3 ovarian
UACC-257 melanoma = test system: UACC-257 melanoma
MDA-MB-231 breast = test system: MDA-MB-231 breast
SF-295 CNS = test system: SF-295 CNS
U251 CNS = test system: U251 CNS
SK-MEL-28 melanoma = test system: SK-MEL-28 melanoma
SNB-75 CNS = test system: SNB-75 CNS
TK-10 renal = test system: TK-10 renal
NCI-H460 lung = test system: NCI-H460 lung
RPMI-8226 leukemia = test system: RPMI-8226 leukemia
RXF 393 renal = test system: RXF 393 renal
A498 renal = test system: A498 renal
SK-MEL-5 melanoma = test system: SK-MEL-5 melanoma
KM12 colon = test system: KM12 colon
MDA-MB-435 = test system: MDA-MB-435
MOLT-4 leukemia = test system: MOLT-4 leukemia
NCI-H522 lung = test system: NCI-H522 lung

Measured: TGI

O=C(O)c1cc(C(=O)O)nc(C(=O)O)c1
> 100 µM: all assays above

COc1ccc(SCc2cc(OC)c(OC)c(OC)c2)cc1OC
63.1 µM: MDA-MB-435
83.3 µM: HOP-92 NSCLC
> 31.6 µM: T-47D breast
> 69.1 µM: SK-MEL-2 melanoma
> 90.1 µM: SK-OV-3 ovarian
34.7 µM: SK-MEL-5 melanoma
> 70.5 µM: SNB-75 CNS
> 86.4 µM: A498 renal
> 100 µM: all other assays above
